Assay results reported in patent US20250270170A1, “2,3-DIMETHOXY-5-METHYL-1,4-BENZOQUINONE ALKYL ALCOHOL DERIVATIVE AND USE THEREOF” (BEIJING ANJIANXI BIO-MEDICAL TECHNOLOGY CO., LTD., priority 2021, published 2025).
Several values for one entry are separate records, joined by “and”; a condition that tells them apart may be missing. Equal entries are not always repeated. Marks after values point to notes of the source that are not given here.

Key:
[1] = Example 8: serum UREA at the end of the assay; assay type: in vivo, nude mice; conditions: DDP 5 mg/kg i.p. QW×4
From the text: The assay animals, calculation of tumor volume (TV), end of assay, data recording, calculation formula of tumor growth inhibition rate TGI (%), and statistical analysis method were the same as those in Example 3; the preparation of the administration formulation of the compound of formula (I) was the same as that in Example 5. [table]

[2] = tested on: human esophageal cancer ECA109 transplanted tumor; assay: Example 8: tumor growth in ECA109 transplanted tumor model; assay type: in vivo, nude mice; conditions: DDP 5 mg/kg i.p. QW×4
From the text: The assay animals, calculation of tumor volume (TV), end of assay, data recording, calculation formula of tumor growth inhibition rate TGI (%), and statistical analysis method were the same as those in Example 3; the preparation of the administration formulation of the compound of formula (I) was the same as that in Example 5. An appropriate amount of CMC-Na solid was weighed, and an appropriate volume of deionized water was firstly added. The mixture was vortexed and stirred until the solid was completely dispersed and evenly distributed, to give a 0.5% CMC-Na aqueous solution, which was stored at 2 to 8° C. in a refrigerator. An appropriate amount of DDP was weighed and put into a glass bottle, and an appropriate amount of physiological saline was added to the bottle. […] This solution was prepared before each administration. Human esophageal cancer cells ECA109 were obtained from the Cell Bank of Wuhan University (CCTCC, cryopreserved in liquid nitrogen in the laboratory). […] The cells were pipetted with a pipette to disperse them evenly, and the cells were put into a 50-mL centrifuge tube, which was placed in an ice box. A 1-mL syringe was used to draw the cell suspension, which was injected subcutaneously into the axilla of the front right limb of a […]. Each animal was inoculated with 200 μL (1.0×10^7 cells/mouse) to establish an ECA109 transplanted tumor model in nude mice. After the inoculation, the animal status and tumor growth were regularly observed, and the tumor diameter was measured using an electronic vernier caliper. The data were input into an Excel spreadsheet to calculate the tumor volume. When the tumor volume reached 100 to 300 mm^3, animals in good health and with similar tumor volumes were selected and divided into groups using randomized block method. The day of grouping was regarded as the first day of the assay (D1). After the start of the assay, the tumor diameter was measured twice a week, the tumor volume was calculated, and the animal body weight was also weighed and recorded. [table]

[3] = Example 7: body weight of NCI-N87 tumor-bearing nude mice; assay type: in vivo; conditions: DDP 4/2/1/4 mg/kg IP
[4] = tested on: cisplatin-induced acute kidney damage in mice; assay: Example 11: serum urea nitrogen (Bun) in cisplatin-induced acute kidney damage model; assay type: in vivo, C57BL/6J mice; conditions: for serum urea nitrogen value vs model group: P>0.05; for Urea nitrogen (Bun) level after the assay, x (mean): group mean; for Urea nitrogen (Bun) level after the assay, x (mean) / Urea nitrogen (Bun) level after the assay: cisplatin model; for Urea nitrogen (Bun) level after the assay: individual animals No. 1-7
Description: 42 male C57BL/6J mice (age: 6 to 8 weeks, body weight 18-20 g, certificate number: 11400700238365) were purchased from Si Pei Fu (Beijing) Biotechnology Co., Ltd., and raised in an SPF-grade animal room of the Institute of Materia Medica, Chinese Academy of Medical Sciences, at a temperature of 20 to 25° C., a relative humidity of 40% to 70%, and a cycle of 12 hours of light and 12 hours of dark. The animals had free access to water and food. After 3 days of normal feeding, mice with good physical conditions after the veterinary examination were selected for this assay. Before grouping, a marker was used to mark on the base of the animals' tail. After grouping, each animal was marked with an ear cutout (7 mice in each group).
Assay animals: 42 7-week-old male C57 mice were used for animal testing after an adaptive feeding.
Group 1: blank control group;
The preparation of the R01 formulation administration test solution was the same as that in Example 5: an appropriate amount of the R01 formulation was weighed according to the three dosages set in the assay, respectively, and an appropriate volume of 0.5% CMC-Na aqueous solution was added. The mixture was vortexed and sonicated until mixed evenly, to give the administration test solutions with concentrations of […], respectively, which were ready for use.
Animal testing period: 7 days (excluding adaptive feeding), hereinafter referred to as: D1-D7.
1. The first group was a solvent control group: N=7, all mice were males (the same below); • a) 0.5% solution of sodium carboxymethyl cellulose was gavagely administered from D1 to D6 (twice a day for each animal, with an interval of 8 hours between the morning and the afternoon). • b) Physiological saline was intraperitoneally injected in one-time on D4. • c) On D7, blood was collected from the orbit for euthanasia (300 ul of serum was extracted), the left kidney was fixed in formaldehyde, and the right kidney was preserved in liquid nitrogen (WB study may be carried out).
1) The concentrations of urea nitrogen and creatinine in peripheral blood serum were tested.
The body weight of the animals when being grouped for administration in each group was recorded. The body weight and the kidney weight at the end of the assay were also recorded, and the kidney coefficient was calculated. The creatinine and urea nitrogen values in the blood samples sent for testing were recorded. The kidneys were stained with HE and PAS, and the slides were scanned. A report was issued after the pathological analysis.
The assay data were calculated and processed statistically using Microsoft Office Excel 2007 software. Unless otherwise specified, the data were expressed as mean±standard error (Mean±SE), and t-test was used for comparison between two groups.

## N.N.[Cl][Pt][Cl] [DDP, cisplatin]
[1]
  Serum UREA Mean ± SE: 13.43 ± 1.04 mmol/L
[2]; D1
  Mean tumor volume: 193 ± 9 mm^3
[2]; D5
  Mean tumor volume: 204 ± 5 mm^3
  tumor growth inhibition rate (TGI): (64%)
[2]; D8
  Mean tumor volume: 203 ± 11** mm^3
  tumor growth inhibition rate (TGI): (87%)
[2]; D12
  Mean tumor volume: 215 ± 10** mm^3
  tumor growth inhibition rate (TGI): (79%)
[2]; D15
  Mean tumor volume: 224 ± 8** mm^3
  tumor growth inhibition rate (TGI): (79%)
[2]; D19
  Mean tumor volume: 247 ± 8** mm^3
  tumor growth inhibition rate (TGI): (67%)
[2]; D22
  Mean tumor volume: 259 ± 8** mm^3
  tumor growth inhibition rate (TGI): (63%)
[2]; D26
  Mean tumor volume: 276 ± 9** mm^3
  tumor growth inhibition rate (TGI): (58%)
[2]; D29
  Mean tumor volume: 285 ± 9** mm^3
  tumor growth inhibition rate (TGI): (59%)
[2]; D33
  Mean tumor volume: 259 ± 12** mm^3
  tumor growth inhibition rate (TGI): (73%)
[2]; D36
  Mean tumor volume: 292 ± 11** mm^3
  tumor growth inhibition rate (TGI): (60%)
[3]; D12
  Animal body weight: 18.6 ± 0.5 g
[3]; D16
  Animal body weight: 17.9 ± 0.3 g
  body weight loss rate: 3.9%
[3]; D19
  Animal body weight: 18.0 ± 0.4 g
  body weight loss rate: 3.3%
[3]; D23
  Animal body weight: 16.9 ± 0.5 g
  body weight loss rate: 9.2%
[3]; D26
  Animal body weight: 17.9 ± 0.5 g
  body weight loss rate: 3.4%
[3]; D30
  Animal body weight: 17.5 ± 0.3 g
  body weight loss rate: 6.0%
[3]; D33
  Animal body weight: 18.6 ± 0.4 g
  body weight loss rate: 0.090%
[3]; D37
  Animal body weight: 18.9 ± 0.4 g
  body weight loss rate: −2.0%
[3]; D40
  Animal body weight: 19.2 ± 0.4 g
  body weight loss rate: −3.1%
[3]; D44
  Animal body weight: 18.3 ± 0.3 g
  body weight loss rate: 1.4%

## COC1=C(OC)C(=O)C(CCCCCCCCCCOC(=O)Cc2c(C)n(C(=O)c3ccc(Cl)cc3)c3ccc(OC)cc23)=C(C)C1=O [compound of formula (I)]
[4]; R01 high-dosage group (36 mg/kg bid) with cisplatin 10 mg/kg, P<0.05
  serum urea nitrogen value: significantly lower than that of the model group
[4]; R01 low-dosage group (6 mg/kg bid) with cisplatin 10 mg/kg
  serum urea nitrogen value vs model group: no significant difference
[4]; R01 medium-dosage group (18 mg/kg bid) with cisplatin 10 mg/kg
  serum urea nitrogen value vs model group: no significant difference
[4]; R01 6 mg/kg
  Urea nitrogen (Bun) level after the assay, x (mean): 16.1 mg/dL
[4]; R01 18 mg/kg
  Urea nitrogen (Bun) level after the assay, x (mean): 16.1 mg/dL
[4]; R01 36 mg/kg
  Urea nitrogen (Bun) level after the assay, x (mean): 13.7 mg/dL
[4]; R01 6 mg/kg, listed as R01, 6 mg/kg
  Urea nitrogen (Bun) level after the assay: 28.3 mg/dL and 29.25 mg/dL and 10.62 mg/dL and 11.72 mg/dL and 13.85 mg/dL and 4.91 mg/dL and 14.1 mg/dL
[4]; R01 18 mg/kg, listed as R01, 18 mg/kg
  Urea nitrogen (Bun) level after the assay: 13.41 mg/dL and 15.83 mg/dL and 19.59 mg/dL and 14.73 mg/dL and 10.38 mg/dL and 22 mg/dL and 16.55 mg/dL
[4]; R01 36 mg/kg, listed as R01, 36 mg/kg
  Urea nitrogen (Bun) level after the assay: 12.39 mg/dL and 12.73 mg/dL and 14.32 mg/dL and 14.34 mg/dL and 9.98 mg/dL and 14 mg/dL and 17.8 mg/dL
